The nature of this series: Thermogravimetry: weight loss, i.e. water loss, as a function of temperature (thermobalance TGS-2). The format is physicochemical. To be noted: heating rate 10 K·min^−1, water-free N2 atmosphere. The procedure:
Using thermogravimetry, in a water-free N2 atmosphere, the weight loss, i.e. the water loss for the tetrahydrate of the calcium salt of valsartan A1,Ca as a function of temperature, was measured at a heating rate of 10 K·min^−1. […]
Using thermogravimetry, in a water-free N2 atmosphere, the weight loss, i.e. the water loss for the trihydrate of the calcium salt of valsartan in the polymorphic form B1,Ca as a function of temperature, was measured at a heating rate of 10 K·min^−1.
Using thermogravimetry, in a water-free N2 atmosphere, the weight loss, i.e. the water loss for the trihydrate B2,Ca as a function of temperature, was measured at a heating rate of 10 K·min^−1. The results for the polymorph B2,Ca of the trihydrate of the calcium salt of valsartan are illustrated in table 4.
Using thermogravimetry, in a water-free N2 atmosphere, the weight loss, i.e. the water loss for the trihydrate B3,Ca as a function of temperature, was measured at a heating rate of 10 K·min^−1. The results for the polymorphic form B3,Ca of the trihydrate of the calcium salt of valsartan are illustrated in table 5.
Using thermogravimetry, in a water-free N2 atmosphere, the weight loss, i.e. the water loss for the di-(calcium salt of valsartan) pentahydrate D1,Ca as a function of temperature, was measured at a heating rate of 10 K·min^−1.
The instrument used for the calorimetric data is throughout a DSC Pyris 1 (Differential Scanning calorimeter) obtained from Perkin-Elmer Corp., Norwalk, Conn. USA. The measurements are performed with samples enclosed in a sealed gold specimen container with an internal free volume of ca. 22 microliters, with a sample weight of 2 to 4 mg and with a heating rate of Tr=10K·min^−1. […] The instrument used was a TGS-2 (Perkin-Elmer Corp., Norwalk, Conn. USA) and the measurement was performed in a water free atmosphere. The heating rate selected was 10 K·min^−1. The weight loss is illustrated in table 7.
The heating rate selected was 10K·min^−1.
Using thermogravimetry, in a water-free N2 atmosphere, the weight loss, i.e. the water loss for the tetrahydrate as a function of temperature, was measured at a heating rate of 10 K·min^−1. The results for the calcium salt of valsartan tetrahydrate A0,Ca are listed in the following: […]
Using thermogravimetry, in a water-free N2 atmosphere, the weight loss, i.e. the water loss for the tetrahydrate of the calcium salt of valsartan as a function of temperature, was measured at a heating rate of 10 K·min^−1.

Several values for one entry are separate records, joined by “and”; a condition that tells them apart may be missing. Equal entries are not always repeated.

With “(S)—N-(1-carboxy-2-methyl-prop-1-yl)-N-pentanoyl-N-[2′-(1H-tetrazol-5-yl)-biphenyl-4-ylmethyl]-amine calcium salt trihydrate [B1,Ca]”, the “weight loss or water loss in %” value reads like this: (temperature 25 °C, calcium salt trihydrate) 0.4 ± 0.3% and 0.5%; (temperature 50 °C, calcium salt trihydrate) 2.0 ± 0.5% and 2.0%; (temperature 75 °C, calcium salt trihydrate) 4.0 ± 0.5% and 3.9%; (temperature 100 °C, calcium salt trihydrate) 6.3 ± 0.5% and 5.7%; (temperature 125 °C, calcium salt trihydrate) 8.5 ± 0.5% and 8.1%; (temperature 150 °C, calcium salt trihydrate) 9.5 ± 0.5% and 9.2%. The “weight loss or water loss in %” value by setting is: (temperature 175 °C, calcium salt trihydrate) 9.7 ± 0.5% and 9.5%; (temperature 200 °C) 9.7%; (temperature 200 °C, calcium salt trihydrate) 9.9 ± 0.5%; (temperature 225 °C, calcium salt trihydrate) 9.9 ± 0.5% and 9.7%; (temperature 250 °C, calcium salt trihydrate) 10.0 ± 0.5% and 9.9%; (temperature 275 °C, calcium salt trihydrate) 10.3 ± 0.5% and 10.2%.

As for “(S)—N-(1-carboxy-2-methyl-prop-1-yl)-N-pentanoyl-N-[2′-(1H-tetrazol-5-yl)-biphenyl-4-ylmethyl]-amine calcium salt trihydrate [B2,Ca]”, the “weight loss or water loss in %” value worked out at 0% (temperature 25 °C); 0.1 ± 0.2% (temperature 25 °C, calcium salt trihydrate, crystalline trihydrate B2,Ca polymorph); 0.9 ± 0.3% (temperature 50 °C, calcium salt trihydrate, crystalline trihydrate B2,Ca polymorph); 2.2 ± 0.5% (temperature 75 °C, calcium salt trihydrate, crystalline trihydrate B2,Ca polymorph); 5.8 ± 0.5% (temperature 100 °C, calcium salt trihydrate, crystalline trihydrate B2,Ca polymorph); 8.9 ± 0.5% (temperature 125 °C, calcium salt trihydrate, crystalline trihydrate B2,Ca polymorph). In addition, the “weight loss or water loss in %” value (temperature 150 °C, calcium salt trihydrate, crystalline trihydrate B2,Ca polymorph) came to 9.9 ± 0.5%; the “weight loss or water loss in %” value (temperature 175 °C, calcium salt trihydrate, crystalline trihydrate B2,Ca polymorph) stood at 10.2 ± 0.5%; the “weight loss or water loss in %” value (temperature 200 °C) came out at 9.7%; the “weight loss or water loss in %” value (temperature 200 °C, calcium salt trihydrate, crystalline trihydrate B2,Ca polymorph) turned out to be 10.3 ± 0.5%; the “weight loss or water loss in %” value (temperature 225 °C, calcium salt trihydrate, crystalline trihydrate B2,Ca polymorph) amounted to 10.5 ± 0.5%; the “weight loss or water loss in %” value (temperature 250 °C, calcium salt trihydrate, crystalline trihydrate B2,Ca polymorph) came out at 10.5 ± 0.5%. Also, the “weight loss or water loss in %” value (temperature 275 °C, calcium salt trihydrate, crystalline trihydrate B2,Ca polymorph) came out at 10.8 ± 0.5%.

(Values after US8329919B2, “Salt hydrates” (Novartis AG, priority 2002, dated 2012).)
